22 molecules from patent US11026942B2, “Agent for preventing and/or treating Alzheimer's disease” (KYOTO UNIVERSITY, priority 2015, dated 2021) can be followed below.

What all share (format): cell-based, human
For test [1], the system named is sAPPβ. Briefly: sAPPβ in FAD1 iPS cell-derived nerve cells (secondary screening). Also noted: sAPPβ: scale not given here. The settings on record: secondary screening, FAD1 iPS cell-derived nerve cells. The protocol:
(§1) To further study reproducibility of the candidate drugs obtained by the primary screening, secondary screening was conducted. In addition to Aβ40, Aβ42, Aβ42/40 ratio, Aβ38, Aβ43, sAPPα, sAPPβ were also studied and each numerical value was obtained.

For test [2], the system named is Aβ43. Briefly: Aβ43 in FAD1 iPS cell-derived nerve cells (secondary screening). Also noted: scale not given here. The protocol:
as §1

Test [3] concerns sAPPα. Description: sAPPα in FAD1 iPS cell-derived nerve cells (secondary screening). Also noted: scale not given here. The settings on record: secondary screening, FAD1 iPS cell-derived nerve cells. How it is done:
as §1

Test [4] has as its system Aβ42/40 ratio. Description: Aβ42/40 ratio in FAD1 iPS cell-derived nerve cells (primary/secondary screening, dose dependency). The settings on record: secondary screening.
Description: (§2) To perform induction from iPS cells to the cerebral cortex nerve early and with high reproducibility, iPS cells introduced with human Neurogenin 2 gene (NGN2) linked to doxycycline-inducible promoter by using PiggyBac were used (FIG. 1a, FIG. 1b, FIG. 4a and FIG. 4b). IPS cells prepared from 4 patients with familial Alzheimer's disease (FAD), 2 patients with sporadic Alzheimer's disease (SAD) and 4 healthy individuals (HC) were used. The iPS cells were established by the method described in Okita K et al., Nature.
(§3) Structural formulas (those in the form of salt or halide are also described as free form) and the general names of the candidate compounds are shown in Table 1.
as §1

Test [5] has as its system Aβ42. Briefly: Aβ42 in FAD1 iPS cell-derived nerve cells (primary/secondary screening, dose dependency). The settings on record: secondary screening, FAD1 iPS cell-derived nerve cells, numerical value (Aβ change rate).
Description: as §2, §3, §1

In test [6] the test system is Aβ38. Briefly: Aβ38 in FAD1 iPS cell-derived nerve cells (secondary screening). Also noted: scale not given here. How it is done: as §1

`NCC(=O)CCC(=O)O` [compound 47, AMINOLEVULINIC ACID] showed a sAPPβ in test [1] of 1.4. Besides, in test [2], the Aβ43 was found to be 1.16. This molecule registered a sAPPα in test [3] of 1.15. In addition, the “Ratio Aβ42/40” value in test [4] was 0.97. The molecule also came in with an Aβ42 in test [5] of 1.06. In test [6], this molecule gave an Aβ38 of 1.29.

The molecule `CN1Cc2c(N)cccc2C(c2ccccc2)C1` (stereo not drawn) [compound 28, NOMIFENSINE] yielded a sAPPβ in test [1] of 0.67. Besides, the Aβ43 in test [2] stood at 0.85. In addition, the sAPPα in test [3] was determined as 0.82. In addition, in test [4], the “Ratio Aβ42/40” value amounted to 0.75. Further, in test [5], the Aβ42 is listed as 0.8. For the same molecule, the Aβ38 in test [6] is listed as 0.95.

The molecule `CCCCOc1cc(C(=O)NCCN(CC)CC)c2ccccc2n1` [compound 76, DIBUCAINE] registered a sAPPβ in test [1] of 0.77. For the same molecule, the Aβ43 in test [2] is 0.98. In test [3], this molecule returned a sAPPα of 0.77. In addition, in test [4], the “Ratio Aβ42/40” value came out at 0.94. The molecule further displayed an Aβ42 in test [5] of 0.9. For the same molecule, the Aβ38 in test [6] stood at 0.97.

Molecule `COc1cccc([C@@]2(O)CCCC[C@@H]2CN(C)C)c1` [compound 99, TRAMADOL] gave a sAPPβ in test [1] of 1.11. For the same molecule, in test [2], the Aβ43 came to 1.02. The molecule also displayed a sAPPα in test [3] of 1.04. Also, the “Ratio Aβ42/40” value in test [4] was 0.93. In test [5], the Aβ42 is recorded as 0.98. For the same molecule, in test [6], the Aβ38 is 1.17.

Molecule `NCCc1cnc[nH]1` [compound 121, HISTAMINE] gave a sAPPβ in test [1] of 1.15. The molecule also registered an Aβ43 in test [2] of 1.23. In test [3], this molecule displayed a sAPPα of 1.08. Moreover, the “Ratio Aβ42/40” value in test [4] was found to be 1.09. The Aβ42 in test [5] is on record as 1.02. In test [6], this molecule yielded an Aβ38 of 1.22.

As to `CC(=O)Nc1ccc(OC(C)=O)cc1` [compound 68, DIACETAMATE], the sAPPβ in test [1] amounted to 0.86. This molecule also registered an Aβ43 in test [2] of 0.97. The molecule also registered a sAPPα in test [3] of 0.98. Also, the “Ratio Aβ42/40” value in test [4] amounted to 0.76. In test [5], the Aβ42 was 0.86. The same molecule displayed an Aβ38 in test [6] of 1.08.

As for `Cc1cc(CC(=O)O)n(C)c1C(=O)c1ccc(Cl)cc1` [compound 65, ZOMEPIRAC], the sAPPβ in test [1] is on record as 0.76. The same molecule displayed an Aβ43 in test [2] of 0.83. The sAPPα in test [3] came to 0.73. Also, the “Ratio Aβ42/40” value in test [4] is reported as 0.85. Also, in test [5], the Aβ42 is recorded as 0.79. In addition, in test [6], the Aβ38 came out at 0.92.

The molecule `C=CCSCC1Nc2cc(Cl)c(S(N)(=O)=O)cc2S(=O)(=O)N1` (stereo not drawn) [compound 117, ALTHIAZIDE] registered a sAPPβ in test [1] of 0.7. The molecule also registered an Aβ43 in test [2] of 0.91. Besides, in test [3], the sAPPα amounted to 0.92. The “Ratio Aβ42/40” value in test [4] is on record as 0.91. Also, the Aβ42 in test [5] is reported as 0.81. The same molecule registered an Aβ38 in test [6] of 1.03.

Take `CCCCCCCCCCCCCCCCCCCCCCO` [compound 111, DOCOSANOL]: the sAPPβ in test [1] stood at 0.83. In test [2], this molecule showed an Aβ43 of 0.83. Also, the sAPPα in test [3] is 0.79. In addition, in test [4], the “Ratio Aβ42/40” value is reported as 0.9. In addition, the Aβ42 in test [5] worked out at 0.86. In addition, in test [6], the Aβ38 stood at 1.03.

Regarding `Nc1nc(=S)c2[nH]cnc2[nH]1` [compound 122, THIOGUANINE], the sAPPβ in test [1] came to 0.9. For the same molecule, the Aβ43 in test [2] is 0.92. In test [3], this molecule came in with a sAPPα of 0.95. In addition, in test [4], the “Ratio Aβ42/40” value came to 0.88. Further, the Aβ42 in test [5] is 0.69. The Aβ38 in test [6] is 0.91.

Regarding `c1ccc2c(c1)OCC(C1=NCCN1)O2` (stereo not drawn) [compound 43, IDAZOXAN], the sAPPβ in test [1] turned out to be 0.81. In test [2], this molecule registered an Aβ43 of 0.97. Moreover, the sAPPα in test [3] came to 0.84. The “Ratio Aβ42/40” value in test [4] was 0.99. Also, in test [5], the Aβ42 was determined as 0.93. Moreover, the Aβ38 in test [6] came to 1.03.

As for `CCOC(=O)c1ccc(N)cc1` [compound 51, BENZOCAINE], in test [1], the sAPPβ is 0.87. In test [2], this molecule yielded an Aβ43 of 0.99. For the same molecule, in test [3], the sAPPα is recorded as 0.8. Also, the “Ratio Aβ42/40” value in test [4] is recorded as 1.03. In test [5], this molecule showed an Aβ42 of 0.94. In test [6], this molecule showed an Aβ38 of 1.05.

In test [1], `C/N=C(\NC#N)NCCSCc1nc[nH]c1C` [compound 79, CIMETIDINE] displayed a sAPPβ of 0.88. The molecule also displayed an Aβ43 in test [2] of 0.92. In addition, the sAPPα in test [3] stood at 0.87. The “Ratio Aβ42/40” value in test [4] came to 1.04. The molecule also had an Aβ42 in test [5] of 0.98. The Aβ38 in test [6] is given as 1.03.

Molecule `CC(C)CC(N(C)C)C1(c2ccc(Cl)cc2)CCC1` (stereo not drawn) [compound 126, SIBUTRAMINE] showed a sAPPβ in test [1] of 0.92. This molecule came in with an Aβ43 in test [2] of 0.87. Also, in test [3], the sAPPα was 0.8. In addition, the “Ratio Aβ42/40” value in test [4] came out at 0.87. The same molecule returned an Aβ42 in test [5] of 0.88. Besides, in test [6], the Aβ38 came to 1.05.

In turn, `CNCCc1ccccn1` [compound 21, BETAHISTINE] returned a sAPPβ in test [1] of 0.91. The Aβ43 in test [2] worked out at 0.87. The sAPPα in test [3] turned out to be 0.73. The “Ratio Aβ42/40” value in test [4] stood at 1.08. This molecule returned an Aβ42 in test [5] of 0.98. The Aβ38 in test [6] is on record as 1.01.

For the molecule `CCOc1ccc(NC(=O)CC(C)O)cc1` (stereo not drawn) [compound 70, BUCETIN], the sAPPβ in test [1] is 0.75. Further, in test [2], the Aβ43 is given as 0.85. Also, the sAPPα in test [3] was found to be 0.75. Also, in test [4], the “Ratio Aβ42/40” value is on record as 0.88. The molecule also gave an Aβ42 in test [5] of 0.82. Also, the Aβ38 in test [6] is 1.02.

`CC(=O)Nc1cccc(O)c1` [compound 93, METACETAMOL] gave a sAPPβ in test [1] of 0.89. Moreover, in test [2], the Aβ43 is 0.74. The sAPPα in test [3] was 0.83. Also, in test [4], the “Ratio Aβ42/40” value stood at 0.86. Besides, in test [5], the Aβ42 was 0.77. This molecule returned an Aβ38 in test [6] of 0.95.

Molecule `CC(C)(C)NC[C@H](O)c1ccc(O)c(CO)c1` [compound 73, LEVALBUTEROL] displayed a sAPPβ in test [1] of 0.66. Further, the Aβ43 in test [2] was 0.91. The sAPPα in test [3] is 0.74. Besides, the “Ratio Aβ42/40” value in test [4] amounted to 0.92. The molecule further registered an Aβ42 in test [5] of 0.84. This molecule registered an Aβ38 in test [6] of 0.99.

Molecule `Oc1c(Cl)cc(Cl)cc1Sc1cc(Cl)cc(Cl)c1O` [compound 88, BITHIONOL] displayed a sAPPβ in test [1] of 0.92. Moreover, the Aβ43 in test [2] is 0.85. Also, the sAPPα in test [3] was 0.78. In addition, the “Ratio Aβ42/40” value in test [4] is reported as 0.97. Moreover, the Aβ42 in test [5] was 0.93. In test [6], the Aβ38 came out at 1.03.

For the molecule `COc1cc(NC(C)CCCN)c2ncccc2c1` (stereo not drawn) [compound 77, PRIMAQUINE], in test [1], the sAPPβ is listed as 0.85. In addition, the Aβ43 in test [2] was 0.89. Also, in test [3], the sAPPα was 0.79. In addition, the “Ratio Aβ42/40” value in test [4] is on record as 0.95. This molecule also yielded an Aβ42 in test [5] of 0.87. Further, in test [6], the Aβ38 amounted to 1.07.

As for `CN1CCc2cccc3c2[C@H]1Cc1ccc(O)c(O)c1-3` [compound 8, APOMORPHINE], the sAPPβ in test [1] worked out at 0.78. This molecule also registered an Aβ43 in test [2] of 1.01. Besides, in test [3], the sAPPα came out at 0.8. Also, in test [4], the “Ratio Aβ42/40” value worked out at 1.01. Also, the Aβ42 in test [5] worked out at 0.93. In test [6], the Aβ38 stood at 1.08.

On to `c1ccc2[nH]c(-c3cscn3)nc2c1` [compound 20, THIABENDAZOLE], for which the sAPPβ in test [1] is listed as 0.67. This molecule returned an Aβ43 in test [2] of 0.79. This molecule yielded a sAPPα in test [3] of 0.79. Further, in test [4], the “Ratio Aβ42/40” value stood at 0.88. For the same molecule, the Aβ42 in test [5] is on record as 0.84. This molecule returned an Aβ38 in test [6] of 1.05.
